From US10953015B2, “Use of adenosine receptor signaling to regulate P-gp function” (CORNELL UNIVERSITY, priority 2016, dated 2021)

Test system: P-gp
Experiment: P-gp expression in HEK293T kidney cell line (IFA MFI, western blot)
Type: cell-based, human
Conditions: Lexiscan® 1, 0.5, 0.1 μM
Method: FIGS. 20A and 20B illustrate that Lexiscan® downregulates P-gp expression in the kidney cell line HEK293T while treatment with antagonist SCH58261 blocks Lexiscan®'s effects. […] HEK293T cells were grown to confluency on coverslips, and treated with varying concentrations of Lexiscan® (1, 0.5, and 0.1 μM) for 15 minutes. Cells were permeabilized and then stained with an antibody to P-gp (C219) and visualized under a fluorescent microscope. FIG. 20B is a graph of the MFI of P-gp in FIG. 20A. DMSO vs. Lexiscan® (“Lex”), *=P<0.05, Lexiscan® (“Lex”)+SCH58261 (“SCH”), ****P<0.0001.
HEK293T transformed kidney cells were treated with varying concentration of Lexiscan® (1, 0.5, 0.1 μM). Cells were lysed with lysis buffer ([…]), containing protease inhibitor cocktail. Samples were loaded on 7% SDS PAGE at 100V for 1 hour and transferred to nitrocellulose paper. The intensity of bands were analyzed by densitometry and plotted as a graph. Statistics: two-tailed student's t test: *=P<0.5, ****=P<0.0001.
Applicants investigated whether A2A AR agonists could modulate P-gp expression in the HEK293T human kidney cell line. HEK293T cells were grown to confluency on coverslips and treated with varying concentrations of Lexiscan, Lexiscan® plus the A2A antagonist (SCH58261), or vehicle control for 15 minutes. Cells were then permeabilized, stained with an antibody to P-gp, and visualized under a fluorescent microscope (FIG. 20A). The mean fluorescence intensity (MFI) of P-gp was quantified and graphed in FIG. 20B.
HEK293T cells were treated with various concentrations of Lexiscan, lysed, loaded onto an SDS-PAGE gel, transferred to a nitrocellulose membrane, and used for western blot analysis.

CNC(=O)c1cnn(-c2nc(N)c3ncn([C@@H]4O[C@H](CO)[C@@H](O)[C@H]4O)c3n2)c1 [Lexiscan®, 1-[6-amino-9-[(2R,3R,4S,5R)-3,4-dihydroxy-5-(hydroxymethyl)oxolan-2-yl]purin-2-yl]-N-methylpyrazole-4-carboxamide]
P-gp expression (western blot densitometry): significantly down-regulated P-gp expression in transformed HEK293T cells
P-gp expression (MFI) (15 minutes): down-regulates P-gp expression in HEK293T cells
